Experimental data published in ChEMBL document CHEMBL3885861, “Open TG-GATES”.

Species: Rattus norvegicus
Assay: Open TG-GATES - Regimen: Single
Format: toxicity, organism-based, Sprague-Dawley
Design: regimen Single, gender Male, age 6 weeks
Details: in vivo, po, 2000 mg/kg, route gavage, dose level High; for APTT / Bas / Eos / Fbg / Hb / Ht / Lym / MCH / MCHC / MCV / Mono / Neu / PT / Plat / RBC / Ret / WBC: tissue Blood; for KIDNEY_L / KIDNEY_R / KIDNEY_TOTAL: tissue Kidney; for LIVER: tissue Liver; for A/G / ALP / ALT / AST / BUN / CRE / Ca / Cl / DBIL / GLC / IP / K / LDH / Na / PL / RALB / TBIL / TC / TG / TP / gamma-GTP: tissue Plasma

## NNC(=O)c1ccncc1 [ISONIAZID]
3 h
  TERMINAL_BW: 221 g
  APTT: 20.8 s
  Bas: 0%
  Eos: 1.2%
  Fbg: 218.2 mg/dL
  Hb: 13.8 g/dL
  Ht: 38.4%
  Lym: 73.8%
  MCH: 22.2 pg
  MCHC: 36%
  MCV: 61.7 fL
  Mono: 2%
  Neu: 22.2%
  PT: 12.3 s
  Plat: 117.2 x10_4/uL
  RBC: 621.8 x10_4/ul
  Ret: 7.9%
  WBC: 51.3 x10_2/uL
  KIDNEY_L: 1 g
  KIDNEY_R: 1 g
  KIDNEY_TOTAL: 1.9 g
  LIVER: 9.8 g
  A/G: 1.7
  ALP: 760.4 IU/L
  ALT: 31.4 IU/L
  AST: 66.4 IU/L
  BUN: 8.8 mg/dL
  CRE: 0.4 mg/dL
  Ca: 10.4 mg/dL
  Cl: 102.4 meq/L
  DBIL: 0.062 mg/dL
  GLC: 221.8 mg/dL
  IP: 10.2 mg/dL
  K: 4 meq/L
  LDH: 231.8 IU/L
  Na: 141.2 meq/L
  PL: 136 mg/dL
  RALB: 3.6 g/dL
  TBIL: 0.1 mg/dL
  TC: 72.8 mg/dL
  TG: 58.8 mg/dL
  TP: 5.7 g/dL
  gamma-GTP: 0.8 IU/L
6 h
  TERMINAL_BW: 217.4 g
  APTT: 19.1 s
  Bas: 0%
  Eos: 0.8%
  Fbg: 231 mg/dL
  Hb: 13.7 g/dL
  Ht: 38.1%
  Lym: 68.4%
  MCH: 22 pg
  MCHC: 36%
  MCV: 61 fL
  Mono: 1.6%
  Neu: 28.2%
  PT: 12.2 s
  Plat: 128.8 x10_4/uL
  RBC: 625.4 x10_4/ul
  Ret: 8.1%
  WBC: 60.7 x10_2/uL
  KIDNEY_L: 1 g
  KIDNEY_R: 1 g
  KIDNEY_TOTAL: 1.9 g
  LIVER: 9.6 g
  A/G: 1.5
  ALP: 774.2 IU/L
  ALT: 27.8 IU/L
  AST: 43.8 IU/L
  BUN: 8.8 mg/dL
  CRE: 0.5 mg/dL
  Ca: 10.4 mg/dL
  Cl: 104.2 meq/L
  DBIL: 0.062 mg/dL
  GLC: 222.4 mg/dL
  IP: 9.2 mg/dL
  K: 3.7 meq/L
  LDH: 185.6 IU/L
  Na: 141.8 meq/L
  PL: 151.2 mg/dL
  RALB: 3.5 g/dL
  TBIL: 0.1 mg/dL
  TC: 78.2 mg/dL
  TG: 47.8 mg/dL
  TP: 5.9 g/dL
  gamma-GTP: 1 IU/L
9 h
  TERMINAL_BW: 217 g
  APTT: 18.6 s
  Bas: 0.2%
  Eos: 1%
  Fbg: 230 mg/dL
  Hb: 14 g/dL
  Ht: 38.5%
  Lym: 70.4%
  MCH: 21.7 pg
  MCHC: 36.3%
  MCV: 59.8 fL
  Mono: 1.8%
  Neu: 26%
  PT: 12.5 s
  Plat: 131.2 x10_4/uL
  RBC: 644 x10_4/ul
  Ret: 7%
  WBC: 61.3 x10_2/uL
  KIDNEY_L: 1 g
  KIDNEY_R: 1 g
  KIDNEY_TOTAL: 2.1 g
  LIVER: 9 g
  A/G: 1.7
  ALP: 823.6 IU/L
  ALT: 23.8 IU/L
  AST: 40.8 IU/L
  BUN: 8.8 mg/dL
  CRE: 0.4 mg/dL
  Ca: 10.5 mg/dL
  Cl: 104 meq/L
  DBIL: 0.066 mg/dL
  GLC: 211 mg/dL
  IP: 9.2 mg/dL
  K: 3.6 meq/L
  LDH: 195.4 IU/L
  Na: 142.4 meq/L
  PL: 151.8 mg/dL
  RALB: 3.7 g/dL
  TBIL: 0.1 mg/dL
  TC: 76.2 mg/dL
  TG: 78 mg/dL
  TP: 5.9 g/dL
  gamma-GTP: 1 IU/L
24 h
  TERMINAL_BW: 212.5 g
  APTT: 18.8 s
  Bas: 0.2%
  Eos: 0.8%
  Fbg: 196 mg/dL
  Hb: 14.7 g/dL
  Ht: 40.4%
  Lym: 75.4%
  MCH: 22.4 pg
  MCHC: 36.4%
  MCV: 61.6 fL
  Mono: 3.4%
  Neu: 19.6%
  PT: 14.4 s
  Plat: 152.8 x10_4/uL
  RBC: 656.4 x10_4/ul
  Ret: 2.8%
  WBC: 41.4 x10_2/uL
  KIDNEY_L: 1.1 g
  KIDNEY_R: 1.1 g
  KIDNEY_TOTAL: 2.2 g
  LIVER: 9.5 g
  A/G: 1.8
  ALP: 761.4 IU/L
  ALT: 12 IU/L
  AST: 25.8 IU/L
  BUN: 14 mg/dL
  CRE: 0.5 mg/dL
  Ca: 10.1 mg/dL
  Cl: 103.8 meq/L
  DBIL: 0.06 mg/dL
  GLC: 205.4 mg/dL
  IP: 8.4 mg/dL
  K: 3.9 meq/L
  LDH: 203.8 IU/L
  Na: 143 meq/L
  PL: 114.2 mg/dL
  RALB: 3.5 g/dL
  TBIL: 0.1 mg/dL
  TC: 47 mg/dL
  TG: 90 mg/dL
  TP: 5.5 g/dL
  gamma-GTP: 0.8 IU/L
